In patent US20240408152A1, “NOVEL ENTEROCOCCUS FAECIUM LCM001 STRAIN, AND USE THEREOF” (MBIOMETHERAPEUTICS CO., LTD., priority 2021, published 2024):
≈ marks a conversion by molar mass, not a printed value. Read-outs that look alike come from different tables or passages of the source.

Test system: human non-small cell lung cancer (NSCLC) A549 cells
Assay: MTT cell viability assay, lung cancer cells
Type: cell-based
Protocol: The human non-small cell lung cancer (NSCLC) A549 cells were cultured in RPMI 1640 culture medium supplemented with 10% fetal bovine serum (FBS) and 1% penicillin/streptomycin in a incubator at 37° C. in a 5% CO2. Human normal fibroblast lung cell Wi38 were cultured in MEM culture medium supplemented with 10% FBS and 1% penicillin/streptomycin.
The cell viability rate was measured using MTT [3-(4,5-dimethylthiazol-2-yl)-2,5-diphenyl-tetrazolium bromide] assay. Specifically, lung cancer cells (A549, 7×10^3 cells/well), colon cancer cells (HCT-15, 5×10^3 cells/well), liver cancer cells (Sk-hep-1, 5×10^3 cells/well), pancreatic cancer cells (PANC-1, 5×10^3 cells/well), and breast cancer cells (MCF-7, 2×10^3 cells/well) were seeded in a 96-well culture plate at 3 times repeatedly, and cultured overnight at 37° C. in 5% CO2 with RPMI 1640 medium containing 10% FBS. Subsequently, the cell-free supernatant was added to each well at concentrations of 1×, 2×, 5×, and 10×, with 100 μL per well, and cultured for 24 hours at 37° C. in 5% CO2.
To assess cell apoptosis, MTT reagent at a concentration of 5 mg/ml was added to each well with 10 μL per well and reacted for 4 hours at 37° C. in 5% CO2. The cells were then dissolved in dimethyl sulfoxide (DMSO, 100 μL/well), and the absorbance at 570 nm was measured using a microplate reader.
The cell viability rate was calculated as a percentage using the following formula. The cell toxicity test was conducted in triplicate, and the values are presented as mean±standard deviation.
To confirm the efficacy of Cyclo(L-pro-L-tyr), the active ingredient of Enterococcus faecium LCM001, as well as its derivatives on apoptosis of non-small cell lung cancer A549 cells, the inventors conducted an MTT assay on Cyclo(L-pro-L-tyr), Cyclo(L-Phe-L-pro), Cyclo(L-Phe-trans-4-hydroxy-L-Pro), Cyclo(L-Pro-D-Phe), and Cyclo(Tyr-Hpro), and calculated their IC50 values.

SMILES	IC50	IC50 (Homo sapiens, read-out: IC50)
O=C1N[C@@H](Cc2ccccc2)C(=O)N2CCC[C@@H]12 [Cyclo(L-Phe-L-pro)]	26.1 µg/mL (≈ 107 µM)	–
O=C1NC(Cc2ccc(O)cc2)C(=O)N2CCC[C@@H]12 (stereo partly drawn) [Cyclo(L-pro-L-tyr), Cyclo(L-Pro-L-Tyr)]	–	99.6 µg/mL (≈ 382 µM)

Continued, in another order:

IC50	SMILES	IC50 (Homo sapiens, read-out: IC50)
57.58 µg/mL (≈ 221 µM)	O=C1N[C@@H](Cc2ccccc2)C(=O)N2C[C@H](O)C[C@@H]12 (relative stereo) [Cyclo(L-Phe-trans-4-hydroxy-L-Pro)]	–
94.56 µg/mL (≈ 387 µM)	O=C1NC(Cc2ccccc2)C(=O)N2CCCC12 [Cyclo(L-Pro-D-Phe)]	–
119 µg/mL (≈ 431 µM)	O=C1NC(Cc2ccc(O)cc2)C(=O)N2CC(O)CC12 (centres unmarked) [Cyclo(Tyr-Hpro)]	–
